For 14 compounds, TGI results are on record in PubChem BioAssay (NCI).

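1) Cells in 96-well plates. 2) Compound, 48 h, 5 concentrations. 3) Linear interpolation between surrounding doses. 4) Unreached endpoint = highest concentration. TGI denotes the concentration required for complete inhibition of growth.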

Some test systems named below: DLD-1 colon; DMS 114 small cell lung; DMS 273 small cell lung; HOP-18 NSCLC; LXFL 529 NSCLC; RXF-631 renal; SNB-78 CNS; XF 498 CNS; P388 leukemia; P388/ADR leukemia; SN12K1 renal.
Assay in all cases: NCI tumour cell line growth inhibition, 48 h

For `CS(=O)(=O)CSCSSCS(C)(=O)=O`, the TGI is greater than 75.4 µM in the assay with DLD-1 colon; greater than 92.1 µM in the assay with DMS 114 small cell lung; greater than 81.3 µM with DMS 273 small cell lung; greater than 100 µM with HOP-18 NSCLC; 42.5 µM in the assay on LXFL 529 NSCLC; greater than 100 µM in the assay on RXF-631 renal. In addition, the TGI was greater than 100 µM in the assay with SNB-78 CNS and 75.6 µM in the assay on XF 498 CNS.
In the case of `O=C(N/N=C(/CCN1CCCC1)CC(c1ccccc1)c1c(O)c2ccccc2oc1=O)c1ccncc1` (stereo unspecified), the TGI in the assay with DLD-1 colon, in the assay on HOP-18 NSCLC, in the assay on LXFL 529 NSCLC and with SNB-78 CNS was greater than 100 µM throughout.
For the compound `CCC1=C(C(C)=O)[C@@H]2CCCCC[C@@H](C(=O)OC)C2C1=O` (stereo partly specified), the TGI with DLD-1 colon, in the assay on DMS 114 small cell lung, in the assay on DMS 273 small cell lung, with HOP-18 NSCLC, with LXFL 529 NSCLC and in the assay with SNB-78 CNS was greater than 100 µM in each case. In the assay with XF 498 CNS, this compound yielded a TGI greater than 100 µM.
For the compound `CCCCOc1ccc(OCCCCCCCCCC[N+](C)(C)C)cc1`, the TGI was 21.5 µM with DLD-1 colon; 6.75 µM in the assay on DMS 114 small cell lung; 4.25 µM with DMS 273 small cell lung; 13.7 µM in the assay with HOP-18 NSCLC; 3.06 µM in the assay on P388 leukemia; 17.8 µM in the assay on P388/ADR leukemia. The TGI with SN12K1 renal came to 8.54 µM; in the assay on SNB-78 CNS, 9.78 µM; in the assay with XF 498 CNS it was 4.57 µM.
On to `O=S(=O)(O)c1ccc(N=Nc2ccc(N=Nc3ccc(/C=C/c4ccc(N=[N+]([O-])c5ccc(/C=C/c6ccc(N=Nc7ccc(N=Nc8ccc(S(=O)(=O)O)cc8)cc7)cc6S(=O)(=O)O)c(S(=O)(=O)O)c5)cc4S(=O)(=O)O)c(S(=O)(=O)O)c3)cc2)cc1`, for which the TGI in the assay with DLD-1 colon, in the assay with DMS 114 small cell lung, in the assay on DMS 273 small cell lung, in the assay with HOP-18 NSCLC, with P388 leukemia and in the assay with P388/ADR leukemia was greater than 100 µM throughout. In addition, the TGI in the assay with SN12K1 renal and with XF 498 CNS was greater than 100 µM in each case.
As to `Cc1cc(C)nc(NS(=O)(=O)c2ccc(Nc3c4ccccc4nc4c(C(=O)N5CCN(CCOS(C)(=O)=O)CC5)cccc34)cc2)n1`, the TGI in the assay on DLD-1 colon, in the assay with DMS 114 small cell lung, in the assay on SNB-78 CNS and in the assay on XF 498 CNS was greater than 100 µM each time.
With `COC(=O)[C@@H]1CCCCC[C@H]2C(CO)=C(C)C(=O)C12` (stereo partly specified), the TGI in the assay with DLD-1 colon, in the assay with DMS 114 small cell lung, with DMS 273 small cell lung, with HOP-18 NSCLC, in the assay on LXFL 529 NSCLC and with SNB-78 CNS was greater than 100 µM in each case. This compound displayed a TGI in the assay on XF 498 CNS greater than 100 µM.
As to `CCOC(=O)C1(C#N)C(c2ccccc2)CC(O)(c2ccc(Cl)cc2)C(C(=O)c2ccc(Cl)cc2)C1c1ccccc1` (stereo unspecified), the TGI in the assay with DLD-1 colon, in the assay with DMS 114 small cell lung, in the assay on DMS 273 small cell lung, with HOP-18 NSCLC, with LXFL 529 NSCLC and in the assay on SNB-78 CNS was greater than 100 µM each time. The TGI in the assay on XF 498 CNS is greater than 100 µM.
For the compound `COC(=O)C(=O)C(C(=O)C(=O)Nc1cccc(C(C)=O)c1)c1nc2ccccc2[nH]c1=O` (stereo unspecified), the TGI with DLD-1 colon, with DMS 114 small cell lung, with DMS 273 small cell lung, with HOP-18 NSCLC, with LXFL 529 NSCLC and in the assay on RXF-631 renal was greater than 100 µM each time.
As to `CN(C)/N=C(/c1nc2ccc(Cl)cc2[nH]c1=O)C(O)c1ccc(C(O)/C(=N\N(C)C)c2nc3ccc(Cl)cc3[nH]c2=O)cc1` (stereo unspecified), the TGI with DLD-1 colon, in the assay with DMS 114 small cell lung and in the assay with RXF-631 renal was greater than 100 µM throughout.
As for `NCCCCNCCCNC(=O)c1nc(-c2nc(CCN)sc2Cl)sc1Cl`, the TGI with DLD-1 colon is greater than 100 µM; with DMS 114 small cell lung, 52.5 µM; in the assay with DMS 273 small cell lung it was greater than 100 µM; in the assay with LXFL 529 NSCLC, 11.1 µM; in the assay with SNB-78 CNS, greater than 100 µM; with XF 498 CNS, greater than 100 µM.
`CCOC(=O)c1s/c(=N\Nc2nc3ccccc3cc2C2OCCO2)n(Cc2ccccc2)c1C`: the TGI in the assay with DLD-1 colon, in the assay on DMS 114 small cell lung, with DMS 273 small cell lung, with HOP-18 NSCLC, with LXFL 529 NSCLC and in the assay on RXF-631 renal was greater than 100 µM throughout. The TGI with SNB-78 CNS and in the assay with XF 498 CNS was greater than 100 µM in each case.
Regarding `CC(C)N1CC2CC(CN(C(=O)c3ccccc3)C2)C1`, the TGI in the assay with DMS 114 small cell lung, in the assay on DMS 273 small cell lung, with HOP-18 NSCLC, with LXFL 529 NSCLC, with RXF-631 renal and in the assay with XF 498 CNS was greater than 100 µM throughout.
For `CN(C)CCNC(=O)c1cc(Cl)cc2ccc(-c3ccccc3)nc12`, the TGI with DLD-1 colon was 12.9 µM; in the assay with DMS 114 small cell lung it was 12.6 µM; in the assay on DMS 273 small cell lung it was 7.48 µM; with HOP-18 NSCLC, 12.5 µM; in the assay with P388/ADR leukemia it was 7.95 µM; in the assay on SN12K1 renal, 5.81 µM. In addition, the TGI in the assay with SNB-78 CNS stood at 24.9 µM; in the assay on XF 498 CNS, 5.04 µM.
